# Where a name gives a salt, the structure may show the parent alone.
# Key:
# [1] = tested on: RF strain of HIV (CEM-SS cells); assay: Cell Culture Anti-HIV Activity (cell viability, formazan); type: cell-based; conditions: Human immunodeficiency virus 1, CEM-SS, 144 h, CEM-SS cells, RF strain of HIV, multiplicity of infection 0.04, 6 days at 37° C., 450 nm; read-out: HIV (CEM Cells) IC50
# In short: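 CEM-SS cells (5000/well) infected with HIV RF at MOI 0.04, exposed to half-log serial compound dilutions, incubated 6 days at 37° C. Viability read by tetrazolium reduction to formazan, absorbance 450 nm. IC50 is the concentration raising formazan in infected cells to 50% of uninfected, drug-free cells.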
# [2] = target: T1, HIV protease (Human immunodeficiency virus type 1 group M subtype B, UniProt P04585); assay: HIV Protease Assay; type: biochemical; conditions: 4% DMSO, 450 μM substrate, pH 5.5, 30 minutes at 37° C., RP-HPLC; for inhibition at 10 µM: pH 5.5, 10 μM inhibitor, read-out: HIV Protease % Inhibition at 10 μM
# T1 construct: and purified protease
# In short: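 Purified protease cleaved 450 μM octapeptide substrate in 50 mM sodium acetate pH 5.5 with 100 μg/ml BSA for 30 minutes at 37° C; product analyzed by reverse-phase HPLC at UV220 after H3PO4 quench. Inhibitors tested at final 10 μM with 4% DMSO.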
HIV Protease % Inhibition at 10 μM ([2]; 10 μM inhibitor),inhibition at 10 µM [2],SMILES,IC50 [1]
99%,–,"CC(C)(C)OC(=O)N[C@@H](Cc1ccccc1)[C@H](O)CNC[C@@H](O)[C@H](Cc1ccccc1)NC(=O)C(O)(CO)C(C)(C)C (single isomer, unassigned; isomer a) [Compound 366, [1S-[1R*,2S*(2S*,3R*)]]-[3-[[3-[[2-Hydroxy-2-(hydroxymethyl)-3.3-dimethyl-1-oxobutyl]amino]-2-hydroxy-4-phenylbutyl]amino]-2-hydroxy-1-(phenylmethyl)propyl]carbamic acid. 1.1-dimethylethyl ester, isomer A]",0.009 µM
–,99%,"CC(C)(C)OC(=O)N[C@@H](Cc1ccccc1)[C@H](O)CNC[C@@H](O)[C@H](Cc1ccccc1)NC(=O)[C@@H](NC(=O)OCc1cc2cccnc2o1)C(C)(C)C [Compound 352, [S-[1R*,2S*(2S*,3R*)]]-[2,2-Dimethyl-1-[[[3-[[3-[[(1,1-dimethylethoxy)carbonyl]amino]-2-hydroxy-4-phenylbutyl]amino]-2-hydroxy-1-(phenylmethyl)-propyl]amino]carbonyl]propyl]carbamic acid, (2-furo[2,3-b]pyridinyl)methyl ester]",0.1 µM
–,99%,"CNC(=O)C(C(=O)N[C@@H](Cc1ccccc1)[C@H](O)CNC[C@@H](O)[C@H](Cc1ccccc1)NC(=O)OC(C)(C)C)C(C)(C)C (stereo partly drawn) [Compound 354, [1S-[1R*,2S*(2S*,3R*)]]-[3-[[3-[[3,3-Dimethyl-2-[(methylamino)carbonyl]-1-oxobutyl]amino]-2-hydroxy-4-phenylbutyl]amino]-2-hydroxy-1-(phenylmethyl)propyl]carbamic acid, 1,1-dimethylethyl ester]",0.12 µM
–,99%,"CC(C)(C)OC(=O)N[C@@H](Cc1ccccc1)[C@H](O)CNC[C@@H](O)[C@H](Cc1ccccc1)NC(=O)[C@H](O)C(C)(C)C [Compound 334, [1S-[1R*,2S*[2S*,3R*(S*)]]]-[3-[[3-[(2-Hydroxy-3,3-dimethyl-1-oxobutyl)amino]-2-hydroxy-4-phenylbutyl]amino]-2-hydroxy-1-(phenylmethyl)propyl]carbamic acid, 1,1-dimethylethyl ester]",0.05 µM
–,100%,"CN(C)C(=O)N[C@H](C(=O)N[C@@H](Cc1ccccc1)[C@H](O)CNC[C@@H](O)[C@H](Cc1ccccc1)NC(=O)OC(C)(C)C)C(C)(C)C (relative stereo) [Compound 305, [1R*,2S* (2S*,3R*)]-N-[3-[[3-[[(1,1Dimethylethoxy)carbonyl]amino]-2-hydroxy-4-phenylbutyl]amino]-2-hydroxy-1-(phenylmethyl)propyl]-N^2-[(dimethylamino)carbonyl)-3-methyl-L-valinamide]",0.2 µM
–,100%,"CC(C)(C)OC(=O)N[C@@H](Cc1ccccc1)[C@H](O)CNC[C@@H](O)[C@H](Cc1ccccc1)NC(=O)[C@@H](NC(=O)OCc1cc2ncccc2o1)C(C)(C)C [Compound 323, [S-[1R*,2S*(2S*,3R*)]]-[r2,2-Dimethyl-1-[[[3-[[3-[[(1.1-dimethylethoxy)carbonyl]amino]-2-hydroxy-4-phenylbutyl]amino]-2-hydroxy-1-(phenylmethyl)propyl]amino]carbonyl]propyl]carbamic acid, (2-furo[3,2-b]pyridinyl)methyl ester]",0.014 µM

# More lines, now with the values behind:
SMILES,HIV Protease % Inhibition at 10 μM ([2]; 10 μM inhibitor),inhibition at 10 µM [2],IC50 [1]
"CC(C)[C@@H](NC(=O)OCc1ccccc1)C(=O)N[C@@H](Cc1ccccc1)[C@H](O)CNC[C@@H](O)[C@H](Cc1ccccc1)NC(=O)OC(C)(C)C [Compound 71, [R-[1S*,2R*(2R*, 3S*)]]-N-[3-[[3-[[(1,1-Dimethylethoxy)carbonyllamino]2-hydroxy-4-phenylbutyl]amino]-2-hydroxy-1-phenylmethyl)propyl]-N^2-[(phenylmethoxy)-carbonyl]-D-valinamide]",–,58%,1.2 µM
"CC(C)OC(=O)N[C@@H](Cc1ccccc1)[C@H](O)CNC[C@@H](O)[C@H](Cc1ccccc1)NC(=O)OC(C)C [Compound 123, [R-(R*,S*)]-[Iminobis[2-hydroxy-1-(phenylmethyl)-3.1-propandiyl]biscarbamic acid, bis(1-methylethyl)ester]",–,65%,1 µM
"CC(C)(C)OC(=O)N[C@@H](Cc1ccccc1)[C@H](O)CNC[C@@H](O)[C@H](Cc1ccccc1)NC(=O)[C@H](Cc1ccccc1)NC(=O)OCc1ccccc1 (relative stereo) [Compound 55, [1R*,2S*(2S*,3R*)]-N-[[3-[[(1,1-Dimethylethoxy)carbonyl]amino]-2-hydroxy-4-phenylbutyl]amino]-2-hydroxy-1-(phenylmethyl)propyl]-N^2-[(phenylmethoxy)carbonyl]-L-phenylalaninamide]",–,91%,0.7 µM
"CC(C)(C)OC(=O)N[C@@H](Cc1ccccc1)[C@H](O)CNC[C@@H](O)[C@H](Cc1ccccc1)NC(=O)COc1ccccc1 (relative stereo) [Compound 72, 1S-[1R*,2S*(2S*,3R*)]]-[2-Hydroxy-3-[[2-hydroxy-3-[(phenoxyacetyl)amino]-4-phenylbutyl]amino]-1-(phenylmethyl)propyl]carbamic acid, 1,1-dimethylethylester]",–,51%,> 3.2 µM
"CC(C)(C)OC(=O)N[C@@H](Cc1ccccc1)[C@H](O)CNC[C@@H](O)[C@H](Cc1ccc(OCC(=O)N2CCOCC2)cc1)NC(=O)OC(C)(C)C [Compound 226, [1S-[1R*,2S*(2S*,3R*)]]-[3-[[3-[[(1,1-Dimethylethoxy)carbonyl]amino]-2-hydroxy-4-(4-[2-(4-morpholinyl)-2-oxo-ethoxy]phenyl]butyl]amino]-2-hydroxy-1-(phenylmethyl)propyl]carbamic acid, 1,1-dimethylethyl ester]",–,98%,0.05 µM
"CC(C)C(C)(NC(=O)OCc1ccccc1)C(=O)N[C@@H](Cc1ccccc1)[C@H](O)CNC[C@@H](O)[C@H](Cc1ccccc1)NC(=O)OC(C)(C)C (stereo partly drawn) [Compound 73, [(S,R)-3-[[(R,S)-3-[[2-[[(Phenyl-methoxy)carbonyl)amino]-2,3-dimethyl-1-oxy-butyl]amino]-2-hydroxy-4-phenylbutyl]amino]-2-hydroxy-1-(phenylmethyl)-propyl]carbamic acid, 1,1-dimethylethyl ester]",–,99%,0.6 µM
"CC(C)(C)OC(=O)N[C@@H](Cc1ccccc1)[C@H](O)CNC[C@@H](O)[C@H](Cc1ccccc1)NC(=O)OC(C)(C)Cc1ccccc1 [Compound 154, [R-(R*,S*)]-Iminobis[2-hydroxy-1-(phenylmethyl)-3,1-propanediyl)]biscarbamic acid, 1,1-dimethylethyl 1,1-dimethyl-2-phenylethyl ester]",–,96%,> 1.2 µM
"CC(C)(C)OC(=O)N[C@@H](Cc1ccccc1)[C@H](O)CNC[C@@H](O)[C@H](Cc1cccc(OCc2ccccc2)c1)NC(=O)OC(C)(C)C [Compound 28, [1S-[1R*,2S*(2S*,3R*)]]-[3-[[3-[[(1,1-Dimethylethoxy)-carbonyl]amino]-2-hydroxy-4-phenylbutyl]amino]-2-hydroxy-1-[[3-(phenylmethoxy)phenyl]methyl]propyl]carbamic acid, 1,1-dimethylethyl ester]",–,100%,0.09 µM
"Cc1ccc(N(C)CCOc2ccc(C[C@H](NC(=O)OC(C)(C)C)[C@H](O)CNC[C@@H](O)[C@H](Cc3ccccc3)NC(=O)OC(C)(C)C)cc2)cc1 [Compound 217, [1S-[1R*,2S*(2S*,3R*)]]-[3-[[3-[[(1,1-Dimethylethoxy)carbonyl]amino]-2-hydroxy-4-[4-[2-methyl(4-methylphen-yl)amino]-ethoxyl]phenyl]butyl]amino]-2-hydroxy-1-(phenylmethyl) propyl]carbamic acid, 1,1-dimethylethyl ester]",–,100%,0.48 µM
"CC(C)(C)OC(=O)N[C@@H](Cc1ccccc1)[C@H](O)CNC[C@H](O)[C@H](Cc1ccccc1)NC(=O)OC(C)(C)C [Compound 5, [1S-[1R*,2S*(2R*,3R*)]]-[3-[[3-[[(1,1-Dimethylethoxy)carbonyl]amino]-2-hydroxy-4-phenylbutyl]amino]-2-hydroxy-1-(phenylmethyl)propyl]carbamic acid, 1,1-dimethylethyl ester]",–,41%,2.8 µM
"CC(C)[C@H](NC(=O)OCc1ncc[nH]1)C(=O)N[C@@H](Cc1ccccc1)[C@H](O)CNC[C@@H](O)[C@H](Cc1ccccc1)NC(=O)OC(C)(C)C (relative stereo) [Compound 249, [1R*,2S*(2S*,3R*)]-N-[3-[[3-[[(1,1-Dimethylethoxy)carbonyl]amino]-2-hydroxy-4-phenylbutyl]amino]-2-hydroxy-1-(phenylmethyl)propyl]-N^2-[(1H-imidazol-2-ylmethoxy)carbonyl]-L-valinamide, acetate (2:3) salt]",–,100%,0.84 µM
"CC(C)(C)OC(=O)N[C@@H](Cc1ccccc1)[C@H](O)CNC[C@@H](O)[C@H](Cc1ccc(OCCc2ccccn2)cc1)NC(=O)OC(C)(C)C [Compound 178, [1S-[1R*,2S*(2S*,3R*)]]-[3-[[3-[[(1,1-Dimethylethoxy)carbonyl]amino]-2-hydroxy-4-(4-[2-(2-pyridinyl)ethoxy]phenyl]butyl]amino]-2-hydroxy-1-(phenylmethyl)-propyl]carbamic acid, 1,1-dimethyl-ethyl ester]",–,99%,0.03 µM

# From patent US5760036A, “Aminediol protease inhibitors” (E. R. Squibb & Sons, Inc., priority 1995, dated 1998)
